Assay results reported in article PMC9229160 (Pharmaceuticals, 2022).

Target: T1, human kappa-opioid receptor (KOR) (Homo sapiens, UniProt P41145)
T1 construct: gene OPRK1
Assay: [3H]U69, […] radioligand competition binding, CHO-hKOR membranes; […]GTPγS antagonism (Ke […])

Q: `Cc1c(NC(=O)c2ccc(Cl)cc2)cc(-c2ccccc2)n1CCCN1CCOCC1` [Compound A] was tested. Which Ki did it give?
A: The Ki was 1350 ± 320 nM.
